The source of these data is patent US10036048B1, “Process for obtaining a naphthoquinone derivative from Streptomyces sp” (KING SAUD UNIVERSITY, priority 2017, dated 2018).

In brackets after ≈: the same amount, converted by molar mass. Some results are limits rather than exact numbers.

The test system of data set [1] is Streptomyces sp. isolate ERINLG-201. Description: Antibiotic sensitivity of the isolate. It is filed as cell-based. As for the experimental part: (ERINLG-201). The Streptomyces sp. isolate ERINLG-201 was recovered from Kodanad forest, (Southern Western Ghats) Tamil Nadu, India. The strain was Gram-positive filamentous bacterium. The culture characteristics of the new isolate were observed after 7, 14 and 21 days of incubation on different media. The color of the substrate mycelia was white. […] The temperature for growth ranged from 25 to 37° C. with optimum of 30° C. and the pH range was 6-12 with normal pH of 7. Utilization of various carbon sources by ERINLG-201 indicated a wide pattern of carbon source assimilation. […] The partial 16S rRNA gene sequences of isolate ERINLG-201 have been deposited in the GenBank database under accession number KC820651.

A further data set has as its system Enterobacter aerogenes. Description: Minimum inhibitory concentration (MIC), broth dilution. The conditions noted are these: Klebsiella aerogenes, 24 h, read-out: Minimum Inhibitory Concentration (MIC). For orientation: In broth dilution the organism is exposed to a series of concentrations in liquid medium.
Another data set deals with Shigella flexneri. Described as above. The conditions noted are these: 24 h, read-out: Minimum Inhibitory Concentration (MIC).
Data set [2] relates to Staphylococcus aureus (MRSA). Description: Minimum inhibitory concentration (MIC), clinical isolate. The settings on record: 24 h, read-out: Minimum Inhibitory Concentration (MIC).
The next data set relates to Micrococcus luteus. The experiment in a line: Minimum inhibitory concentration (MIC), broth dilution. The conditions noted are these: 24 h, read-out: Minimum Inhibitory Concentration (MIC).
Data set [3] deals with Klebsiella pneumoniae (ESBL-3967). The experiment in a line: Minimum inhibitory concentration (MIC), clinical isolate. The conditions noted are these: 24 h, read-out: Minimum Inhibitory Concentration (MIC).
A further data set has as its system Klebsiella pneumoniae. Description: Minimum inhibitory concentration (MIC), broth dilution. The conditions noted are these: 24 h, read-out: Minimum Inhibitory Concentration (MIC).
The test system of data set [4] is Escherichia coli (ESBL-3984). The experiment in a line: Minimum inhibitory concentration (MIC), clinical isolate. The conditions noted are these: 24 h, read-out: Minimum Inhibitory Concentration (MIC).
Data set [5] deals with Escherichia coli (ESBL-3904). Described as above. The settings on record: 24 h, read-out: Minimum Inhibitory Concentration (MIC).
Another data set relates to Pseudomonas aeruginosa. Description: Minimum inhibitory concentration (MIC), broth dilution. The conditions noted are these: 24 h, read-out: Minimum Inhibitory Concentration (MIC).
The subject of a further data set is Staphylococcus aureus. Described as above. The settings on record: 24 h, read-out: Minimum Inhibitory Concentration (MIC).
The next data set has as its system Bacillus subtilis. The description is as above. The conditions noted are these: 24 h, read-out: Minimum Inhibitory Concentration (MIC).
Another data set concerns Salmonella paratyphi-B. The data set is described as above. The settings on record: 24 h at 37° C. It is filed as cell-based.
Data set [6] relates to Klebsiella pneumoniae (ESBL-3971). The experiment in a line: Minimum inhibitory concentration (MIC), clinical isolate. The conditions noted are these: 24 h, read-out: Minimum Inhibitory Concentration (MIC).
The test system of the next data set is Proteus vulgaris. Description: Minimum inhibitory concentration (MIC), broth dilution. The conditions noted are these: 24 h, read-out: Minimum Inhibitory Concentration (MIC).
In data set [7] the test system is Staphylococcus epidermidis. The data set is described as above. The conditions noted are these: 24 h, read-out: Minimum Inhibitory Concentration (MIC).
For the next data set, the system named is Salmonella typhimurium. The data set is described as above. The conditions noted are these: Salmonella enterica, 24 h, read-out: Minimum Inhibitory Concentration (MIC).
The subject of data set [8] is Klebsiella pneumoniae (ESBL-3894). The experiment in a line: Minimum inhibitory concentration (MIC), clinical isolate. The conditions noted are these: 24 h, read-out: Minimum Inhibitory Concentration (MIC).
Data set [9] relates to Kiebsiella pneumoniae (ESBL-75799). The data set is described as above. The settings on record: 24 h, read-out: Minimum Inhibitory Concentration (MIC).
The subject of another data set is Malassezia pachydermatis. Description: Minimum inhibitory concentration (MIC), fungi. The conditions noted are these: read-out: Minimum Inhibitory Concentration (MIC).
Another data set has as its system Candida albicans. Description: Minimum inhibitory concentration (MIC), fungi. The settings on record: read-out: Minimum Inhibitory Concentration (MIC).
The test system of data set [10] is A549 lung adenocarcinoma cancer cell line. The experiment in a line: Cytotoxic activity (MTT, absorbance at 540 nm). It is filed as cell-based, human. As to the method:
A549 lung adenocarcinoma cancer cell line was obtained from the National Institute of Cell Sciences, Pune. A549 cell line was maintained in complete tissue culture medium Dulbecco's Modified Eagle's Medium with 10% Fetal Bovine Serum and 2 mM L-Glutamine, along with antibiotics (about 100 International Unit/mL of penicillin, 100 μg/mL of streptomycin) with the pH adjusted to 7.2. The cytotoxicity was determined according to the method of Balachandran et al., (2013) with some changes. Cells (5000 cells/well) were seeded in 96 well plates containing medium with different concentrations such as 100, 80, 60, 40, 20, and 10 μg/mL. The cells were cultivated at 37° C. with 5% CO2 and 95% air in 100% relative humidity. After various durations of cultivation, the solution in the medium was removed. An aliquot of 100 μL of medium containing 1 mg/mL of 3-(4,5-dimethylthiazol-2-yl)-2,5-diphenyl-tetrazolium bromide was loaded in the plate. The cells were cultured for 4 h and then the solution in the medium was removed. An aliquot of 100 μL of DMSO was added to the plate, which was shaken until the crystals were dissolved. The cytotoxicity against cancer cells was determined by measuring the absorbance of the converted dye at 540 nm in an Enzyme linked immune sorbant assay (ELISA) reader. Cytotoxicity of each sample was expressed as the half maximal inhibitory concentration (IC50) value. The IC50 value is the concentration of test sample that causes 50% inhibition of cell growth, averaged from three replicate experiments.

For the compound `CC[C@H]1OC(=O)[C@H](C)[C@@H](O[C@H]2C[C@@](C)(OC)[C@@H](O)[C@H](C)O2)[C@H](C)[C@@H](O[C@@H]2O[C@H](C)C[C@H](N(C)C)[C@H]2O)[C@](C)(O)C[C@@H](C)C(=O)[C@H](C)[C@@H](O)[C@]1(C)O` [erythromycin], in data set [1], the “sensitivity of ERINLG-201 towards antibiotic” value was “sensitivity”.
Turning to `[H]/N=C(/N)N[C@H]1[C@H](O)[C@@H](O)[C@H](O[C@@H]2O[C@@H](C)[C@](O)(C=O)[C@H]2O[C@@H]2O[C@@H](CO)[C@H](O)[C@@H](O)[C@@H]2NC)[C@@H](N/C(N)=N\[H])[C@@H]1O` [Streptomycin], the MIC in the data set on Enterobacter aerogenes turned out to be 25 µg/mL (≈ 43 µM); with Shigella flexneri it was 6.25 µg/mL (≈ 10.7 µM); in [2], 6.25 µg/mL (≈ 10.7 µM); in the data set on Micrococcus luteus, 6.25 µg/mL (≈ 10.7 µM); in [3], 25 µg/mL (≈ 43 µM); in the data set on Klebsiella pneumoniae it was 25 µg/mL (≈ 43 µM). Moreover, the MIC in data set [4] turned out to be 25 µg/mL (≈ 43 µM); in data set [5], 25 µg/mL (≈ 43 µM); in the data set on Pseudomonas aeruginosa it was 25 µg/mL (≈ 43 µM); in the data set with Staphylococcus aureus it was 6.25 µg/mL (≈ 10.7 µM); with Bacillus subtilis, 25 µg/mL (≈ 43 µM); in the data set on Salmonella paratyphi-B, 6.25 µg/mL (≈ 10.7 µM). In addition, the MIC stood at 6.25 µg/mL (≈ 10.7 µM) in [6]; 6.25 µg/mL (≈ 10.7 µM) in the data set on Proteus vulgaris; 25 µg/mL (≈ 43 µM) in [7]; 25 µg/mL (≈ 43 µM) in the data set with Salmonella typhimurium; 6.25 µg/mL (≈ 10.7 µM) in data set [8]; 25 µg/mL (≈ 43 µM) in [9].
In the case of `O=C(Cc1cccs1)N[C@@H]1C(=O)N2C(C(=O)[O-])=C(C[n+]3ccccc3)CS[C@H]12` [cephaloridine], in data set [1], the “sensitivity of ERINLG-201 towards antibiotic” value was “sensitivity”.
For `CC1(C)S[C@@H]2[C@H](NC(=O)[C@H](N)c3ccccc3)C(=O)N2[C@H]1C(=O)O` [ampicillin], the “sensitivity of ERINLG-201 towards antibiotic” value in data set [1] is “sensitivity”.
On the same count and under the same terms, then `CCn1cc(C(=O)O)c(=O)c2cc(F)c(N3CCNCC3)cc21` [norfloxacin], with “sensitivity”.
With `CC(=O)N1CCN(c2ccc(OCC3COC(Cn4ccnc4)(c4ccc(Cl)cc4Cl)O3)cc2)CC1` (stereo not drawn) [Ketoconazole], the MIC in the data set on Malassezia pachydermatis and in the data set with Candida albicans was 25 µg/mL (≈ 47 µM) throughout.
vencomycin: the “sensitivity of ERINLG-201 towards antibiotic” value in data set [1] is on record as “sensitivity”.
Still for that read-out and setting: then `NCC[C@H](O)C(=O)N[C@@H]1C[C@H](N)[C@@H](O[C@H]2O[C@H](CN)[C@@H](O)[C@H](O)[C@H]2O)[C@H](O)[C@H]1O[C@H]1O[C@H](CO)[C@@H](O)[C@H](N)[C@H]1O` [amikacin], with “sensitivity”.
Turning to `CN1C(=O)N2CC(C)(OC3=C2C(=O)c2ccccc2C3=O)c2ccccc21` (stereo not drawn) [C-5, Bluemomycin], the MIC with Enterobacter aerogenes stood at 12.5 µg/mL (≈ 34.7 µM); in the data set on Shigella flexneri it was 12.5 µg/mL (≈ 34.7 µM); in data set [2], 25 µg/mL (≈ 69.4 µM); with Malassezia pachydermatis it was 50 µg/mL (≈ 139 µM); in the data set on Micrococcus luteus, 25 µg/mL (≈ 69.4 µM); in data set [3], 6.25 µg/mL (≈ 17.3 µM). Moreover, the MIC was 50 µg/mL (≈ 139 µM) in the data set with Candida albicans; 6.25 µg/mL (≈ 17.3 µM) with Klebsiella pneumoniae; 12.5 µg/mL (≈ 34.7 µM) in data set [4]; 25 µg/mL (≈ 69.4 µM) in data set [5]; 12.5 µg/mL (≈ 34.7 µM) in the data set with Pseudomonas aeruginosa; greater than 100 µg/mL in the data set on Staphylococcus aureus. In addition, the MIC in the data set on Bacillus subtilis was 50 µg/mL (≈ 139 µM); with Salmonella paratyphi-B, 25 µg/mL (≈ 69.4 µM); in data set [6] it was greater than 100 µg/mL; in the data set with Proteus vulgaris, 100 µg/mL (≈ 277 µM); in data set [7], 50 µg/mL (≈ 139 µM); with Salmonella typhimurium, 12.5 µg/mL (≈ 34.7 µM). Besides, the MIC in data set [8] and in data set [9] was 12.5 µg/mL (≈ 34.7 µM) in each case. The “% (cytotoxicity)” value in [10] (5 μg/mL) stood at 10.5%; in data set [10] (10 μg/mL), 26.3%; in [10] (20 μg/mL), 51.7%; in [10] (40 μg/mL) it was 60.2%; in data set [10] (60 μg/mL), 68.6%; in [10] (80 μg/mL), 78.6%. For the same compound, the “% (cytotoxicity)” value in data set [10] (100 μg/mL) stood at 88.7%.
Turning to `O=C(O)c1cn(C2CC2)c2cc(N3CCNCC3)c(F)cc2c1=O` [ciprofloxacin], in [1], the “sensitivity of ERINLG-201 towards antibiotic” value is “sensitivity”.
On the same count and under the same terms, then `CO[C@H]1/C=C/O[C@@]2(C)Oc3c(C)c(O)c4c(O)c(cc(O)c4c3C2=O)NC(=O)/C(C)=C\C=C\[C@H](C)[C@H](O)[C@@H](C)[C@@H](O)[C@@H](C)[C@H](OC(C)=O)[C@@H]1C` [rifamycin], with “sensitivity”.
On to penicillin, for which the “sensitivity of ERINLG-201 towards antibiotic” value in [1] is “sensitivity”.
The same measure, in the same setting: then gentamicin, with “sensitivity”.
